Patent publication US20200121747A1, “COMPOSITION FOR PREVENTING OR TREATING ARTHRITIS COMPRISING HYDROQUINOIC ACID” (PUKYONG NATIONAL UNIVERSITY INDUSTRY-UNIVERSITY COOPERATION …, priority 2018, published 2020)

Experiment: Body weight change in rheumatoid arthritis (CIA) mice
Assay type: in vivo, DBA/1J mice
Details: arthritis mice treated with 10 mg and 20 mg of SHQA; measured weekly for 7 weeks; FIG. 4
Description: Eight weeks old male DBA/1J mice (Central Lab Animal Inc., Seoul, Korea) were raised for 1 week in an environment maintaining temperature (25±2° C.), humidity (55%) and 12 hour light and dark cycle. All experiments were carried out in accordance with the guidelines of the Korean National Institutes of Health Guide for the Care and Use of Laboratory Animals, and the animal testing procedure was approved by the Animal Ethics Committee of Pukyong National University (2015-12). Rheumatoid arthritis was induced in male DBA/1J mice. Type II collagen was emulsified (CFA; 2 mg/mL) in the same volume of complete Freund's adjuvant. On day 0, 100 μg of […] was injected intradermally into the lower tail portion of the DBA/1J mice to immunize. After 21 days, 100 μg of CII (IFA; 2 mg/mL) emulsified in the same volume of incomplete Freund's adjuvant in the lower tail portion of the mice was boosted by intradermal injection. On day 42, all mice were anesthetized with ether and sacrificed. Blood (plasma sample), spleen, liver and joint tissues were immediately removed and stored at −80° C. […]
For the control group without treatment, the arthritis animal group (CIA treatment group), and the treated group in which arthritis experimental animals were treated with 10 mg and 20 mg of SHQA, their body weights were measured weekly for 7 weeks. […]

CC(C)=CCC/C(=C/CC/C(C)=C/CC/C(C)=C/Cc1cc(O)cc(C)c1O)C(=O)O [SHQA, sargahydroquinoic acid]
change in body weight: no significant change in body weight
